Assay results taken from patent US6172091A, “1,2-Disubstituted cyclopropanes” (Ortho-McNeil Pharmaceutical, Inc., priority 1999, dated 2001).

Assays:
[1] = molecular target: T1, calcium sensing receptor as found in the human parathyroid gland (Homo sapiens, UniProt P41180); assay: calcium mobilization fluorescence (FLIPR) assay, agonist mode; type: cell-based; conditions: transfected HEK 293 cells; 1 mM calcium standard; Tables 2-7; read-out: In Vitro: CS50, where potency is at 50% of the calcium standard potency
T1 construct: expressed in transfected cells; host or cells: HEK 293
T1 sequence (P41180 20-1078): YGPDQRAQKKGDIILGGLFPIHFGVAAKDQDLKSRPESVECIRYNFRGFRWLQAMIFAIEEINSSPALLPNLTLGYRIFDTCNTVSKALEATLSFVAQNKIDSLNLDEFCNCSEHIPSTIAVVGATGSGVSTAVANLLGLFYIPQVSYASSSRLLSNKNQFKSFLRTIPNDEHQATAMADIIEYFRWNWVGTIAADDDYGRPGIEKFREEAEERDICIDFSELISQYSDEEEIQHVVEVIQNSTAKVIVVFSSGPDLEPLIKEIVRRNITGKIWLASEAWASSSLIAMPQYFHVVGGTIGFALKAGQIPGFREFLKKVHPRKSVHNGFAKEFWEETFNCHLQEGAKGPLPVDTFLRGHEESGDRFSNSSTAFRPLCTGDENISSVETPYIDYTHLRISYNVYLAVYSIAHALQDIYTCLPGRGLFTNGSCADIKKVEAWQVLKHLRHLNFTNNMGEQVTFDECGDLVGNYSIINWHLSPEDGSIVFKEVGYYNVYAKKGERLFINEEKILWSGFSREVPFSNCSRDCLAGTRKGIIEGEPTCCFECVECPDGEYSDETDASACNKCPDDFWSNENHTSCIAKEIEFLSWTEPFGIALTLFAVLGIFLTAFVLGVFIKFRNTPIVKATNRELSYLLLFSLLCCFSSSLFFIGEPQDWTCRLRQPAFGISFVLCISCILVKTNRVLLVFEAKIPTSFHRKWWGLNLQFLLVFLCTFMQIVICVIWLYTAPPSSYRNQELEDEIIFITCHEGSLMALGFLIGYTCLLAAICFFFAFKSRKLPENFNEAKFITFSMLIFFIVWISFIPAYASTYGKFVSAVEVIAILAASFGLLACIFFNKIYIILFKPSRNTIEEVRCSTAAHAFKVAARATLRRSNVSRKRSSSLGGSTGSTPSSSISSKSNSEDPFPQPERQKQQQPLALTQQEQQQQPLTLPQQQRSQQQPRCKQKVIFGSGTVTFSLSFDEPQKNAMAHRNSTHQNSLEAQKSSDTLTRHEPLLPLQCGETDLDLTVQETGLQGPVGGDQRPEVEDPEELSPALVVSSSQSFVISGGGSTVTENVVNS
Experimental: (§1) In vitro potency is measured via calcium mobilization in a fluorescence assay using HEK 293 cells transfected to express the same calcium sensing receptor as found in the human parathyroid gland. In this assay calcium-sensing receptor agonists and antagonists are detected. The assay is conducted in a 96-well plate format with the use of FLIPR (fluorescent imaging plate reader; Molecular Devices, Sunnyvale, Calif.). The HEK 293 cell media is replaced with the fluorescence dye FLUO-3AM and Pluronic detergent in FLIPR assay buffer. Cells are incubated 60 min (in the dark, at room temperature), then washed with assay buffer and placed in FLIPR. Images are collected by FLIPR in the absence of test compound, then in the presence of test compound (at 25 µM) and then after addition of a calcium challenge (at 1 mM). In the agonist assay the difference between maximum and minimum fluorescence values is measured following test compound addition. Hits have a change in fluorescence greater than or equal to 50% of that seen with a 1 mM calcium standard. In the antagonist assay the difference between maximum and minimum fluorescence values is measured following the calcium challenge addition. When compared to challenge in the absence of test compound, hits reduce fluorescence by at least 50%. In vivo activity is measured via parathyroid hormone (PTH) supression by test compounds in a rat model. Compound is administered orally using 0.5% Tween 80 in distilled water as vehicle, with a volume of approximately 10 mL/kg body weight. Blood samples are taken at 15 minutes (and 4 h if required) post oral dosing. Serum PTH levels are determined with an immunoradiometric assay.
(§2) Not all compounds were tested in each of the screens. […] Each entry represents a mixture of cis and trans cyclopropanes (R,S; S,R; R,R; S,S) with R absolute configuration when R^3=CH3. Table 2 lists compounds that are trans at the cyclopropane (R,R; S,S) with R absolute configuration at the benzylamine position, or without stereochemistry at the benzylamine. Table 3 lists compounds with R,R absolute stereochemistry at the cyclopropane and a mixture of stereochemistry at the benzylamine position. 20. In vitro data in Table 1 is percent activation of the calcium-sensing receptor versus baseline. In vitro data in Tables 2-7 is expressed as a CS50, where potency is at 50% of the calcium standard potency, and the unit is μM. In vivo data represents % blood serum PTH vs. vehicle at 30 mg/kg test compound, levels measured after 15 minutes.

[2] = tested on: parathyroid hormone (PTH); assay: parathyroid hormone (PTH) suppression in a rat model; type: in vivo; conditions: 30 mg/kg test compound, levels measured after 15 minutes; for change in vivo at 30 mg/kg: Rattus norvegicus, po, 0.25 h, read-out: In Vivo: % blood serum PTH vs. vehicle; for In Vivo: % blood serum PTH vs. vehicle: oral, 30 mg/kg
Experimental: as §1, §2

EC50 [1] [µM] | SMILES | change in vivo at 30 mg/kg [2] [%] | In Vivo: % blood serum PTH vs. vehicle [2]
> 25 | Cc1cccc(C(C)NC[C@@H]2C[C@H]2c2ccccc2)c1 (stereo partly drawn) [Compound 40] | -51.2 | –
52.2 | COc1cccc([C@@H](C)NCC2CC2c2ccccc2C(F)(F)F)c1 (stereo partly drawn) [Compound 14] | -34.7 | –
> 25 | COc1cccc([C@H](C)NC[C@H]2C[C@H]2c2ccccc2)c1 [Compound 65] | -38.8 | –
> 25 | COc1cccc([C@@H](C)NCC2CC2c2ccc(C(F)(F)F)cc2)c1 (stereo partly drawn) [Compound 16] | -14.4 | –
> 25 | COc1cccc([C@@H](C)NCC2CC2c2cc(C)ccc2C)c1 (stereo partly drawn) [Compound 33] | – | -47.6%
12.2 | C[C@@H](NC[C@@H]1C[C@H]1c1ccccc1)c1cccc(OC2CCCC2)c1 [Compound 52] | 26.6 | –
> 25 | COc1cccc([C@@H](C)NCC2CC2c2ccncc2)c1 (stereo partly drawn) [Compound 11] | – | –
7.1 | COc1cccc([C@@H](C)NCC2CC2c2cccs2)c1 (stereo partly drawn) [Compound 25] | -89 | –
> 25 | CCc1cccc(C(C)NC[C@@H]2C[C@H]2c2ccccc2)c1 (stereo partly drawn) [Compound 42] | -78.9 | –
11.9 | COc1cccc([C@@H](C)NCC2CC2c2c(F)cccc2F)c1 (stereo partly drawn) [Compound 24] | -85.4 | –
5 | COc1cccc([C@@H](C)NCC2CC2c2ccccc2F)c1 (stereo partly drawn) [Compound 17] | -94.8 | –
9.3 | COc1cccc([C@@H](C)NC[C@@H]2C[C@H]2c2cccc(F)c2)c1 [Compound 22] | – | -93.4%
7.8 | COc1cccc([C@@H](C)NCC2CC2c2cccn2C)c1 (stereo partly drawn) [Compound 27] | – | –
17.6 | COc1cccc([C@@H](C)NC[C@H]2C[C@H]2c2ccccc2)c1 [Compound 62] | 0 | –
> 25 | COc1cccc([C@H](C)NC[C@@H]2C[C@H]2c2ccccc2)c1 [Compound 63] | -40.1 | –
12.4 | COc1cccc([C@@H](C)NCC2CC2c2cc(C)ccc2C)c1 (stereo partly drawn) [Compound 32] | – | -13.5%
3.4 | COc1cccc([C@@H](C)NCC2CC2c2ccsc2)c1 (stereo partly drawn) [Compound 26] | – | –
> 25 | COc1cccc([C@H](C)NC[C@@H]2C[C@@H]2c2ccccc2)c1 [Compound 66] | -61.8 | –
9.5 | COc1cccc([C@@H](C)NCC2CC2c2cccc(C)c2)c1 (stereo partly drawn) [Compound 13] | -98.2 | –
8.8 | COc1cccc([C@@H](C)NCC2CC2c2ccccc2C)c1 (stereo partly drawn) [Compound 12] | -95.8 | –
21 | COc1cccc([C@@H](C)NC[C@@H]2C[C@@H]2c2cc(C)ccc2C)c1 [Compound 70] | -24.7 | –
> 25 | CC(C)Oc1cccc([C@@H](C)NC[C@@H]2C[C@H]2c2ccccc2)c1 [Compound 51] | -7.3 | –
> 25 | COC(=O)N(C[C@@H]1C[C@H]1c1ccccc1)[C@H](C)c1cccc(OC)c1 [Compound 56] | -40.9 | –
5 | COc1cccc([C@@H](C)NC[C@@H]2C[C@H]2c2ccccc2)c1 [Compound 49, N-((R,R)-2-phenylcyclopropanylmethyl)-1-(R)-(3-methoxyphenyl)ethylamine] | -83.6 | –
10.9 | COc1cccc([C@@H](C)NC[C@H]2C[C@@H]2c2cccc(F)c2)c1 [Compound 21] | – | –
37.1 | COc1cccc([C@@H](C)NCC2CC2c2cccnc2)c1 (stereo partly drawn) [Compound 10] | – | –
6.5 | COc1cccc([C@@H](C)NCC2CC2c2ccccn2)c1 (stereo partly drawn) [Compound 9] | – | –

The next lines start with the compound.

SMILES | EC50 [1] [µM] | change in vivo at 30 mg/kg [2] [%] | In Vivo: % blood serum PTH vs. vehicle [2]
COc1cccc([C@@H](C)NCC2CC2c2ccc([N+](=O)[O-])cc2[N+](=O)[O-])c1 (stereo partly drawn) [Compound 34] | > 25 | – | –
COc1cccc([C@@H](C)NCC2CC2c2cccc(F)c2)c1 (stereo partly drawn) [Compound 73] | – | – | -52.5%
COc1cccc([C@@H](C)NCC2CC2c2cc(C)ccc2C)c1 (stereo partly drawn) [Compound 1] | – | – | +31.4%
COc1cccc([C@@H](C)NCC2CC2c2ccc(C)s2)c1 (stereo partly drawn) [Compound 36] | – | -34.2 | –
COc1cccc([C@@H](C)NCC2CC2c2ccc(Cl)cc2)c1 (stereo partly drawn) [Compound 6] | – | -9.3 | –
COc1cccc([C@@H](C)N(C[C@@H]2C[C@H]2c2ccccc2)C(=O)OCC(C)C)c1 [Compound 57] | > 25 | -5.3 | –
COc1cccc([C@@H](C)NCC2CC2(C)c2ccccc2)c1 (stereo partly drawn) [Compound 68] | > 25 | -94.5 | –
c1ccc([C@@H]2C[C@H]2CNCc2cccnc2)cc1 (relative stereo) [Compound 29] | > 25 | 87.8 | –
COc1cccc([C@@H](C)NCC2CC2c2cccc(F)c2)c1 (stereo partly drawn) [Compound 74] | – | – | -2.6%
CC(NC[C@@H]1C[C@H]1c1ccccc1)c1cccc(OC(F)(F)F)c1 (stereo partly drawn) [Compound 39] | – | 0 | –
COc1cccc([C@@H](C)NCC2CC2c2ccc(Cl)s2)c1 (stereo partly drawn) [Compound 35] | – | -15.4 | –
COc1cccc([C@@H](C)NCC2CC2c2cc(Br)cs2)c1 (stereo partly drawn) [Compound 37] | – | -24.8 | –
COc1cccc([C@H](C)NCC2CC2c2cccc(F)c2)c1 (stereo partly drawn) [Compound 77] | – | – | +2.1%
COc1cccc(C(C)(C)NC[C@@H]2C[C@H]2c2ccccc2)c1 [Compound 44] | > 25 | -25.8 | –
COc1cccc([C@H](C)NC[C@H]2C[C@@H]2c2cccc(F)c2)c1 [Compound 75] | – | -0.9 | –
COc1cccc([C@@H](C)NC[C@H]2C[C@@H]2c2cccc(F)c2)c1 [Compound 71] | – | -78.7 | –
COc1cccc([C@@H](C)NCC2CC2c2ccccc2)c1 (stereo partly drawn) [Compound 3] | – | -62.1 | –
COc1cccc([C@H](C)NCC2CC2c2cccc(F)c2)c1 (stereo partly drawn) [Compound 78] | – | – | +21.4%
COc1cccc([C@@H](C)NC[C@@H]2C[C@H]2c2cccc(F)c2)c1 [Compound 72] | – | – | -93.4%
COc1cccc([C@@H](C)NCC2CC2c2ccccc2Cl)c1 (stereo partly drawn) [Compound 4] | – | -11.9 | –
COc1cccc([C@@H](C)N(C[C@@H]2C[C@H]2c2ccccc2)C(=O)C(C)(C)C)c1 [Compound 55] | > 25 | – | –
COc1cccc([C@@H](C)NCC2CC2c2sccc2C)c1 (stereo partly drawn) [Compound 38] | – | -51 | –
COc1cccc([C@H](C)NC[C@@H]2C[C@H]2c2cccc(F)c2)c1 [Compound 76] | – | 16.8 | –
